Source: patent US20160008380A1, “TARGETING GLUTAMINE METABOLISM IN BRAIN TUMORS” (THE JOHNS HOPKINS UNIVERSITY, priority 2013, published 2016)
Entries after “also recorded” stand apart in the source; their conditions may differ.

Tests used:
[1] = system: hindbrain derived neurospheres transduced with oncogenes not including MYC; experiment: BrdU proliferation assay, PNET models; format: cell-based, human; conditions: 10 uM DON, no MYC
Protocol: (§1) FIG. 10 A: Acivicin suppresses the growth of MYC containing human neural stem cell PNET models. Graph comparing percent BrdU positivity in mock treated (blue) and with 10 uM acivicin (red) treated cells. […] FIG. 10 B: Acivicin suppresses the growth of MYC containing human neural stem cell PNET models. The graph compares percent BrdU positivity in mock treated (blue) and with 10 uM DON (red) treated cells.
(§2) For measurement of proliferation, cells were treated with the indicated drug for 18 hours and were then pulsed with bromo-deoxyuridine for an additional 6 hours. Cells were triturated to single cells and then cytospun onto microscope slides. After washing cells once with PBS, they were fixed with 4% paraformaldehyde for 15 minutes, permeabilized with 0.1% Triton/PBS, denatured with 0.1N HCl for 15 minutes, then blocked with 5% normal goat serum/PBST or 5% BSA/PBST, and incubated with anti-BrdU (Sigma) antibody at 37 degrees for one hour. After washing three times with PBST, cells were incubated for 45 minutes in the dark with the appropriate Cy-2 or Cy-3 conjugated secondary antibody (Jackson Immunoresearch). […] Multiple high power fields were photographed at random, and the percent BrdU positivity was calculated by counting first BrdU positive cells and then DAPI positive cells and dividing the former by the latter. […]

[2] = administered orally at therapeutically effective levels; cited from earlier work
D283Med = experiment: Sub-G1 (apoptotic) population by flow cytometry; format: cell-based, human
Excerpt: (§3) FIG. 11: Medulloblastoma cell lines expressing c-MYC and glutaminase (GLS) are sensitive to inhibitors of glutamine metabolism. c-MYC levels positively correlate with GLS levels in D425Med and D283Med (A) as indicated by western blot. The growth of D283Med (B) and D425Med (C) is inhibited when treated with DON or Acivicin as measured by MTS assay. […] Cells were fixed and stained with an anti-cleaved caspase-3 antibody followed by a Cy-3 conjugated secondary and a DAPI counterstain. Multiple images were taken of each treatment and Cy3 positive cells were counted using Adobe Photoshop. Representative images are in D. Acivicin and DON treatment cause an increase the in sub-G1 (apoptotic) population of D425Med (E) and D283Med (F) as measured by flow cytometry.

D425Med [3] = experiment: Sub-G1 (apoptotic) population by flow cytometry; format: cell-based, human
Excerpt: as §3

[4] = system: UW228 (low-MYC medulloblastoma cell line); experiment: MTS cell growth assay; format: cell-based, human; conditions: UW228, 3 days of treatment at increasing concentrations
Protocol: (§4) FIG. 4: Growth as measured by MTS assay after 3 days of acivicin treatment at increasing doses. The low-MYC cell line, UW228 (FIG. 4A), is not sensitive to treatment with acivicin. The high-MYC cell lines, D283 (FIG. 4B) and D425 (FIG. 4C) are sensitive to acivicin, showing an inhibition of growth of approximately 50% or more at a concentration of 10 uM acivicin.
(§5) For relative cell growth assays, cells were seeded in 96-well plates in triplicate at densities of 5000 cells per well. Cell proliferation was monitored at the indicated number of days using the colorimetric CellTiter 96 MTS assay (Promega, Madison, Wis.).
(§6) We tested this hypothesis using UW228 (low MYC) and D283 and D425 (high MYC) medulloblastoma cell lines.

[5] = system: Control cells (neural stem cells); experiment: Cleaved caspase-3 staining (apoptosis); format: cell-based, human; conditions: 72 h treatment
Protocol: (§7) Cells were treated with acivicin or DON for 72 h. The cells were then fixed and stained with an antibody for cleaved caspase-3, followed by a Cy-3 conjugated secondary and a DAPI counterstain. Multiple images were taken of each treatment and cleaved-caspase-3 positive cells counted using Adobe Photoshop. […] Control cells were unaffected by treatment. Representative images are seen in (B and D). Images colorized with Adobe Photoshop.

[6] = system: neural stem cell models of medulloblastoma; experiment: Cleaved caspase-3 staining (apoptosis); format: cell-based, human; conditions: 72 h treatment, p<0.05
Protocol: as §7

[7] = system: D283 (D283Med, high-MYC medulloblastoma cell line); experiment: MTS cell growth assay; format: cell-based, human; conditions: for growth as measured by MTS assay: D283 / D283Med, increasing concentrations
Protocol: as §4, §3, §5, §6

[8] = system: D425 (D425Med, high-MYC medulloblastoma cell line); experiment: MTS cell growth assay; format: cell-based, human; conditions: for growth as measured by MTS assay: D425 / D425Med, increasing concentrations
Protocol: as §4, §3, §5, §6

[9] = system: MYC transduced hindbrain derived human neural stem cell PNET models; experiment: BrdU proliferation assay, PNET models; format: cell-based; conditions: FIG. 10B
Protocol: as §1, §2

[10] = system: KNS42 (low-MYC glioma cell line); experiment: MTS cell growth assay; format: cell-based; conditions: KNS42, 3 days, same concentrations as SF188 and UW479
Protocol: FIG. 9: MTS assay showing sensitivity of high MYC SF188 and […] glioma cell lines and insensitivity of low-MYC KNS42 to glutamine metabolic inhibitors DON and acivicin. Cell growth was measured over 3 days at increasing concentrations of drug.
as §5

D425Med [11] = experiment: Cleaved caspase-3 immunofluorescence (apoptosis); format: cell-based, human; conditions: n=3, p<0.05
Excerpt: as §3

[12] = system: cortex derived neurospheres transduced with oncogenes not including MYC; experiment: BrdU proliferation assay, PNET models; format: cell-based, human; conditions: 10 uM acivicin, no MYC
Protocol: as §1, §2

[13] = system: UW228 cells engineered to express MYC (UW228-UWM13); experiment: MTS cell growth assay; format: cell-based, human; conditions: 3 days of drug treatment
Protocol: Values show mean (n=3) and error bars indicated standard deviation. FIG. 5B: The percent decrease in optical density between no drug and 50 uM acivicin. Error bars indicate SEM. *P=0.00029.
as §5
We next investigated if increasing MYC and GLS expression in a low MYC cell line could confer sensitivity to glutamine anti-metabolites.

[14] = system: human neural stem cells transformed without MYC (SV40 control); experiment: BrdU proliferation assay; format: cell-based
Protocol: (§8) FIG. 6: Suppression of proliferation of MYC-driven human neural stem cell models of medulloblastoma by acivicin. Two human neurosphere lines were treated with 10 uM acivicin for four days. On the fourth day, the spheres were pulsed with BrdU for 6 h. Following the pulse, the spheres were made single cells and fixed onto glass slides. Staining was performed using an anti-BrdU antibody followed by a secondary antibody conjugated to Cy3 and a DAPI counterstain. Images were taken at 400× (FIG. 6A, top panel). DAPI positive and BrdU positive (red) cells in the image were counted using Adobe Photoshop (FIG. 6A, bottom panel). An average of % positive BrdU cells was taken from three images. Error bars indicate SEM. *p=0.012.
(§9) FIG. 14: Acivicin decreases proliferation in neural stem cell models of MYC-driven medulloblastoma. Human neural stem cells derived from the developing cerebellum were transduced with lentiviral vectors coding for oncogenic elements associated with high-risk, MYC-driven medulloblastoma. SV40 was used as a control to immortalize the cells. The transduced neural stem cells were treated with acivicin for 72 h, and pulsed with bromodeoxyuridine for the final 6 hours of treatment. Cells were fixed and stained with an anti-BrdU antibody followed by a Cy-3 conjugated secondary and a DAPI counterstain. Multiple images were taken of each treatment and BrdU positive cells were counted using Adobe Photoshop. […] Representative images are in B.
(§10) For measurement of proliferation, cells were treated with the indicated drug for 18 hours and were then pulsed with bromo-deoxyuridine for an additional 6 hours. Cells were triturated to single cells and then cytospun onto microscope slides. After washing cells once with PBS, they were fixed with 4% paraformaldehyde for 15 minutes, permeabilized with 0.1% Triton/PBS, denatured with 0.1N HCl for 15 minutes, then blocked with 5% normal goat serum/PBST or 5% BSA/PBST, and incubated with anti-BrdU (Sigma) antibody at 37 degrees for one hour. After washing three times with PBST, cells were incubated for 45 minutes in the dark with the appropriate Cy-2 or Cy-3 conjugated secondary antibody (Jackson Immunoresearch). Cells were counterstained with DAPI and mounted with anti-fade (Vectastain). Multiple high power fields were photographed at random, and the percent BrdU positivity was calculated by counting first BrdU positive cells and then DAPI positive cells and dividing the former by the latter.

[15] = system: MYC-driven human neural stem cell models of medulloblastoma (cerebellar neurospheres); experiment: BrdU proliferation assay; format: cell-based
Protocol: as §8, §9, §10

[16] = system: non-MYC transformed neurospheres; experiment: Cell cycle analysis (sub 2N population, flow cytometry); format: cell-based, human; conditions: 3 days of treatment, propidium iodide flow cytometry
Protocol: (§11) FIG. 7: Cell cycle analysis was performed using a Guava flow cytometer following 3 days of treatment in acivicin. Neurospheres transfected with MYC show an increase in the sub 2N population following 3 days of treatment with acivicin, indicating an increase in apoptosis after treatment.
(§12) We also asked this question using human neural stem cell models of aggressive brain tumors. We compared the sensitivity of human neural stem cells transduced with a package of oncogenes that contain MYC versus those that were transformed without using MYC.

[17] = system: Neurospheres transfected with MYC; experiment: as above; format: cell-based, human; conditions: 3 days of treatment, propidium iodide flow cytometry
Protocol: as §11, §12

[18] = system: MYC transduced cortex derived human neural stem cell PNET models; experiment: BrdU proliferation assay, PNET models; format: cell-based; conditions: FIG. 10A
Protocol: as §1, §2

D283Med xenografts = experiment: D283Med orthotopic and flank xenografts in nude mice; format: in vivo; conditions: IP 75 mg/kg acivicin 4 times a week, four weeks
Protocol: FIG. 13: Mice treated with Acivicin develop fewer and smaller flank tumors than untreated mice. Ten immunodeficient (nude) mice received orthotopic and flank xenografts of D283Med. Mice in the treatment group (n=5) were treated 4 times a week with an IP dose of 75 mg/kg of acivicin each time. Mice in the control group (n=5) received an IP injection of sterile PBS. After four weeks, all mice were sacrificed and brains and any flank tumors removed. 100% of the control group developed flank tumors, while only 40% of the treatment group developed flank tumors. The PBS treated mice also developed larger flank tumors (A, bars indicate mean tumor size, error bars SD).

[19] = 10 uM acivicin, four days, BrdU pulse 6 h

Compound: [N-]=[N+]=CC(=O)CC[C@H](N)C(=O)O [DON, 6-Diazo-5-oxo-L-norleucine]
- reduction in proliferation [1]: did not respond strongly; also recorded: slight reduction
- gastrointestinal (GI) toxicity [2]: results in gastrointestinal (GI) toxicity
- sub-G1 (apoptotic) population (D283Med): increase
- sub-G1 (apoptotic) population (D425Med [3]): increase
- growth as measured by MTS assay (sensitivity) [4]: relatively resistant
- apoptosis (cleaved-caspase-3 positive cells) [5]: unaffected
- apoptosis (cleaved-caspase-3 positive cells) [6]: significant increase in apoptosis
- growth as measured by MTS assay [7]: suppressed; also recorded: inhibited
- growth as measured by MTS assay [8]: suppressed; also recorded: inhibited
- sensitivity of MYC driven PNET models [9]: sensitive
- reduction in growth [10]: modest reduction
- apoptosis (cleaved caspase-3 immunofluorescence) (D425Med [11]): increase apoptosis

Compound: N[C@H](C(=O)O)[C@@H]1CC(Cl)=NO1 [acivicin, (2S)-Amino[(5S)-3-chloro-4,5-dihydro-1,2-oxazol-5-yl]ethanoic acid]
- reduction in proliferation [12]: did not respond strongly; also recorded: modest reduction
- sub-G1 (apoptotic) population (D283Med): increase
- sub-G1 (apoptotic) population (D425Med [3]): increase
- growth compared to parental UW228 cells (MTS) [13]: decreased growth
- growth as measured by MTS assay (sensitivity) [4]: relatively resistant; also recorded: virtually no suppression of growth; also recorded: not sensitive
- apoptosis (cleaved-caspase-3 positive cells) [5]: unaffected
- apoptosis (cleaved-caspase-3 positive cells) [6]: significant increase in apoptosis
- change in proliferation (% BrdU positive cells) [14, 19]: insensitive; also recorded: no change
- proliferation (BrdU positive cells) ([14]; SV40 control, acivicin 72 h, BrdU for the final 6 hours): no change
- reduction of proliferation (% BrdU positive cells) [15, 19]: ~30%
- growth after treatment (FIG. 6) ([15]; MYC-transformed human neural stem cells): decreased growth
- proliferation (BrdU positive cells) ([15]; acivicin 72 h, BrdU for the final 6 hours): significant decrease
- growth as measured by MTS assay [7]: suppressed
- growth as measured by MTS assay ([7]; listed as Acivicin): inhibited
- inhibition at 10 µM ([7]; Homo sapiens, 72 h, D283, 10 uM acivicin, 3 days): ≥ 50%
- growth as measured by MTS assay [8]: suppressed
- growth as measured by MTS assay ([8]; listed as Acivicin): inhibited
- inhibition at 10 µM ([8]; Homo sapiens, D425 Med, 72 h, D425, 10 uM acivicin, 3 days): ≥ 50%
- sub 2N population (apoptosis) [16]: did not show an increase; also recorded: do not show any increase
- sub 2N population (apoptosis) [17]: increased apoptosis; also recorded: increase
- sensitivity of MYC driven PNET models [18]: sensitive
- flank tumor size / tumor growth (D283Med xenografts; vs PBS, 75 mg/kg): markedly smaller tumors; also recorded: inhibits tumor growth
- mice that developed flank tumors (D283Med xenografts; control group 100%): 40%
- reduction in growth [10]: modest reduction
- apoptosis (cleaved caspase-3 immunofluorescence) (D425Med [11]): increase apoptosis
